Measured values reported in patent US4402944A, “Polysulfonate Sennoside A & B compounds and method of use” (American Cyanamid Company, priority 1982, dated 1983).
Counter-ions that a name gives are not always drawn.

Key:
[1] = system: activated human C1; assay: Test Code 026 (C1 inhibitor); assay type: biochemical; conditions: serial two fold dilution assay; higher well number indicates higher activity; protection of human C2 from C1 and C4
Experimental: (§1) An active inhibitor protects C2 from C1 and C4; (ii) Test Code 035 (C3-C9 inhibitor)-This test determines the ability of the late components of human complement (C3-C9) to lyse EAC 142 in the presence of appropriate dilutions of the test compound. An active inhibitor protects EAC 142 from lysis by human C3-C9; and (iii) Cap 50 Test-Here, appropriate amounts of the test compound are added to a pool of guinea pig serum in vitro, after which the undiluted serum capillary tube assay of U.S. Pat. No. 3,876,376 is run. The concentration of compound inhibiting 50% is reported.

[2] = system: late components of human complement (C3-C9); assay: Test Code 035 (C3-C9 inhibitor); assay type: biochemical; conditions: serial two fold dilution assay; higher well number indicates higher activity; protection of EAC 142 from lysis
Experimental: as §1

Structure (SMILES) | 026 (C1 inhibitor), activity in wells [1] [wells] | 035 (C3-C9 inhibitor), activity in wells [2] [wells]
O=C(O)c1cc(OS(=O)(=O)O)c2c(c1)[C@H]([C@H]1c3cccc(O[C@@H]4O[C@H](COS(=O)(=O)O)[C@@H](OS(=O)(=O)O)[C@H](OS(=O)(=O)O)[C@H]4OS(=O)(=O)O)c3C(=O)c3c(OS(=O)(=O)O)cc(C(=O)O)cc31)c1cccc(O[C@@H]3O[C@H](COS(=O)(=O)O)[C@@H](OS(=O)(=O)O)[C@H](OS(=O)(=O)O)[C@H]3OS(=O)(=O)O)c1C2=O (relative stereo) [(R*,S*)-5,5'-Bis-(β-D-glucopyranosyloxy)-9,9',10,10'-tetrahydro-4,4'-dihydroxy-10,10'-dioxo-[9,9'-bianthracene]-2,2'-dicarboxylic acid, decakis (H-sulfate), decasodium salt] | 7 | 1
O=C(O)c1cc(OS(=O)(=O)O)c2c(c1)C(C1c3cccc(OC4OC(COS(=O)(=O)O)C(OS(=O)(=O)O)C(OS(=O)(=O)O)C4OS(=O)(=O)O)c3C(=O)c3c(OS(=O)(=O)O)cc(C(=O)O)cc31)c1cccc(OC3OC(COS(=O)(=O)O)C(OS(=O)(=O)O)C(OS(=O)(=O)O)C3OS(=O)(=O)O)c1C2=O [(R*,R*)-5,5'-Bis-(β-D-glucopyranosyloxy)-9,9',10,10'-tetrahydro-4,4'-dihydroxy-10,10'-dioxo-[9,9'-bianthracene]-2,2'-dicarboxylic acid, decakis (H-sulfate), decasodium salt] | 8 | 2
